Experimental data: patent US8637099B2, “Use of Vitex agnus castus extracts for preparing a medicament” (Max Zeller Sohne AG, priority 2007, dated 2014)

System: Fisher rats
Experiment: Tele-Stereo-EEG: field potentials (spectral power) in freely moving rats
Assay type: in vivo, rat
Conditions: 4 mg i.p.

OC1(c2ccc(Cl)cc2)CCN(Cc2c[nH]c3ccccc23)CC1 [L-741,626]
changes in the EEG power spectrum: strong decrease of spectral power mainly within the alpha2 waves
